In ChEMBL document CHEMBL4725450 (ACS Med Chem Lett, 2020):

Key:
[1] = Cmax in rat at 3 mg/kg, po by HPLC analysis; assay type: ADME, organism-based; set-up: route oral, dose 3 mg/kg; conditions: in vivo
Cytochrome P450 2C9 = Cytochrome P450 2C9 (Homo sapiens, UniProt P11712); assay: Inhibition of CYP2C9 (unknown origin); assay type: ADME
[2] = molecular target: T1, Solute carrier family 22 member 12 (Homo sapiens, UniProt Q96S37); assay: Inhibition of human URAT1 expressed in Xenopus laevis oocytes mediated [14C]uric acid uptake at 0.1 uM measured after 60 mins by liquid scintillation counter method relative to control; assay type: cell-based; conditions: 1 h
T1 sequence (Q96S37 whole entry): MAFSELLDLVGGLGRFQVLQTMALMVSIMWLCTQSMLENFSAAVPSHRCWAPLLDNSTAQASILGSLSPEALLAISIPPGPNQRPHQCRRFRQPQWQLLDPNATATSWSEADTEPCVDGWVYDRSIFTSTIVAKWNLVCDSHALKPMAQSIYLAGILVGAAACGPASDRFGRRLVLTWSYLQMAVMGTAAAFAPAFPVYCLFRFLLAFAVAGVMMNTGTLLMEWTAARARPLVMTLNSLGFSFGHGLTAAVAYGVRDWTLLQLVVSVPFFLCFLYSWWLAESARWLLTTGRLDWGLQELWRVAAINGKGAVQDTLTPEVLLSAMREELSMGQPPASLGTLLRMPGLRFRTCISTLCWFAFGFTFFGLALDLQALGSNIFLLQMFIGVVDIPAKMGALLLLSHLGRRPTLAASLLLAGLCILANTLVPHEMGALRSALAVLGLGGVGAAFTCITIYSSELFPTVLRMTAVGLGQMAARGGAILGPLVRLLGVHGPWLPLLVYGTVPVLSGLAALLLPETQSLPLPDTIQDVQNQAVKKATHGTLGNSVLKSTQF

[3] = Drug excretion rate in rat urine at 3 mg/kg, po measured up to 4 hrs by HPLC analysis; assay type: ADME, organism-based; conditions: read-out: Drug excretion
[4] = molecular target: T1, Solute carrier family 22 member 12; assay: Inhibition of URAT1 in human RPTEC assessed as inhibition of [14C]uric acid uptake preincubated for 15 mins followed by [14C]uric acid addition and incubated under shaking condition for 2 hrs by scintillation counter method; assay type: tissue-based
[5] = molecular target: T1, Solute carrier family 22 member 12; assay: Inhibition of URAT1 in human RPTEC assessed as inhibition of [14C]uric acid uptake at 10 uM preincubated for 15 mins followed by [14C]uric acid addition and incubated under shaking condition for 2 hrs by scintillation counter method; assay type: tissue-based
[6] = system: mitochondrial respiration; assay: Hepatotoxicity in rat liver mitochondria assessed as inhibition of mitochondrial respiration by measuring mitochondrial respiratory control ratio of oxygen consumption in presence of substrate and ADP to rate after complete conversion of ADP to ATP by Clark-type oxygen electrode method; assay type: toxicity
[7] = system: mitochondrial respiration; assay: Hepatotoxicity in rat liver mitochondria assessed as inhibition of mitochondrial respiration by measuring mitochondrial respiratory control ratio of oxygen consumption in presence of substrate and ADP to rate after complete conversion of ADP to ATP at 100 uM by Clark-type oxygen electrode method; assay type: toxicity
[8] = Uricosuric effect in Cebus monkey assessed as fractional plasma urate excretion at 30 mg/kg, po measured up to 4 hrs; assay type: functional; conditions: time hrs <=4
[9] = AUC (0 to 24 hrs) in Cebus monkey at 30 mg/kg, po; assay type: ADME, organism-based; set-up: route oral, dose 30 mg/kg, time <=24; conditions: in vivo
[10] = Acid dissociation constant, pKa of the compound; assay type: physicochemical
[11] = AUC (0 to infinity) in rat at 0.3 mg/kg, iv; assay type: ADME, organism-based; set-up: time infinity, route intravenous, dose 0.3 mg/kg; conditions: in vivo
[12] = AUC (0 to 24 hrs) in Cebus monkey at 5 mg/kg, po; assay type: ADME, organism-based; set-up: route oral, dose 5 mg/kg, time <=24; conditions: in vivo
[13] = Drug excretion in human urine assessed as excretion rate of glucuronide metabolite of phenols measured for 72 hrs by mass balance test; assay type: ADME, tissue-based
[14] = Drug excretion in human urine assessed as excretion rate of sulfate metabolite of phenols measured for 72 hrs by mass balance test; assay type: ADME
[15] = Uricosuric effect in Cebus monkey assessed as fractional plasma urate excretion at 5 mg/kg, po measured up to 4 hrs; assay type: functional; conditions: time hrs <=4
[16] = Oral bioavailability in rat at 0.3 mg/kg; assay type: ADME, organism-based; conditions: in vivo
[17] = AUC (0 to infinity) in rat at 0.3 mg/kg, po; assay type: ADME, organism-based; set-up: time infinity, route oral, dose 0.3 mg/kg; conditions: in vivo
[18] = Cmax in rat at 0.3 mg/kg, iv; assay type: ADME, organism-based; set-up: route intravenous, dose 0.3 mg/kg; conditions: in vivo
[19] = Cmax in rat at 0.3 mg/kg, po; assay type: ADME, organism-based; set-up: route oral, dose 0.3 mg/kg; conditions: in vivo
[20] = molecular target: T1, Solute carrier family 22 member 12; assay: Inhibition of human URAT1 expressed in Xenopus laevis oocytes assessed as inhibition of [14C]uric acid uptake measured after 60 mins by liquid scintillation counter method

Sequence of Cytochrome P450 2C9 (P11712 whole entry): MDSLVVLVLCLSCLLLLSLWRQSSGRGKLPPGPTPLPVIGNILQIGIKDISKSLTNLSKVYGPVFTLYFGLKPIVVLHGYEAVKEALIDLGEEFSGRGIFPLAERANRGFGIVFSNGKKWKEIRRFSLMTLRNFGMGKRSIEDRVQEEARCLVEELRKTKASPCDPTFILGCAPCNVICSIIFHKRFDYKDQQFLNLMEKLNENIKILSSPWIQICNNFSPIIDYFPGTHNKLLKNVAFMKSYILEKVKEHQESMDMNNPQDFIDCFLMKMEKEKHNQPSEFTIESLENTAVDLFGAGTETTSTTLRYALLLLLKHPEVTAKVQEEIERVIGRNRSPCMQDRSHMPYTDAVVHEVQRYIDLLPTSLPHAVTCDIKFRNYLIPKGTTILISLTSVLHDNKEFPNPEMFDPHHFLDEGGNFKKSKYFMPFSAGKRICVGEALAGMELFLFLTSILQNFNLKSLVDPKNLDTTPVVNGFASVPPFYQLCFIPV

| Cmax [1] | dose excreted at 4 h [3] | IC50 [4] | inhibition at 10 µM [5] | SMILES | IC50 [6] | inhibition at 100 µM [7] | other results |
| --- | --- | --- | --- | --- | --- | --- | --- |
| 3.81 µg/mL | 0.6% | 19.2 µM | 42% | N#Cc1cc(C(=O)N2CS(=O)(=O)c3ccccc32)cc(C2CC2)c1O | 59 µM | – | IC50 (Cytochrome P450 2C9): 57 µM; inhibition at 0.1 µM [2]: 30% |
| 3.15 µg/mL | 0.1% | 13.1 µM | 49% | N#Cc1cc(C(=O)N2CSc3ccccc32)cc(C(F)(F)F)c1O | 55 µM | – | inhibition at 0.1 µM [2]: 71% |
| – | – | 14.7 µM | 38.2% | N#Cc1cc(C(=O)N2CCc3ccccc32)cc(Cl)c1O | 31 µM | – | – |
| 6.41 µg/mL | 0.1% | 2.6 µM | – | O=C(c1cc(Cl)c(O)c(C(F)(F)F)c1)N1CS(=O)(=O)c2ccccc21 | 18 µM | – | – |
| 1.58 µg/mL | 12.4% | 3.2 µM | – | C#Cc1cc(C(=O)N2CS(=O)(=O)c3ccccc32)cc(C#N)c1O | – | 13% | – |
| – | – | 31.6 µM | 32.4% | CC(C)(C)c1cc(C(=O)N2CCc3ccccc32)cc(C#N)c1O | 6.6 µM | – | – |
| – | – | > 100 µM | – | N#Cc1cc(C(=O)N2CS(=O)(=O)c3ccccc32)cc(C(F)(F)F)c1O | – | 12% | – |
| 1.08 µg/mL | 9.4% | 7.1 µM | 57% | CSc1cc(C(=O)N2CS(=O)(=O)c3ccccc32)cc(C#N)c1O | – | 21% | inhibition at 0.1 µM [2]: 44% |
| – | – | 83.9 µM | 26.3% | N#Cc1cc(C(=O)N2CCc3ccccc32)cc(C#N)c1O | – | 47% | – |
| 4.64 µg/mL | 0.2% | 5.7 µM | – | CSc1cc(C(=O)N2CS(=O)(=O)c3ccccc32)cc(Cl)c1O | 59 µM | – | – |
| 3.99 µg/mL | 0% | 17.8 µM | – | COc1cc(C(=O)N2CS(=O)(=O)c3ccccc32)cc(C(F)(F)F)c1O | – | 47% | – |
| 0.89 µg/mL | 5.9% | 2.5 µM | 67.5% | N#Cc1cc(C(=O)N2CCc3ccccc32)ccc1O | – | 43% | – |
| 7.7 µg/mL | 4.3% | 33.9 µM | – | O=C(c1cc(F)c(O)c(Cl)c1)N1CS(=O)(=O)c2ccccc21 | 63 µM | – | – |
| – | – | 10.8 µM | 52.1% | Cc1c(C)n(C(=O)c2ccc(O)c(C#N)c2)c2ccccc12 | 3.6 µM | – | – |
| 4.46 µg/mL | 0.1% | 83.3 µM | – | CC(C)c1cc(C(=O)N2CS(=O)(=O)c3ccccc32)cc(C#N)c1O | 12 µM | – | – |
| – | – | > 100 µM | 21.7% | COc1cc(C(=O)N2CCc3ccccc32)cc(C#N)c1O | – | -10% | – |
| – | – | > 100 µM | 24.2% | CSc1cc(C(=O)N2CCc3ccccc32)cc(C#N)c1O | 40 µM | – | – |
| 1.35 µg/mL | 23% | > 100 µM | 25% | N#Cc1cc(C(=O)N2CS(=O)(=O)c3ccccc32)cc(Cl)c1O | – | 20% | inhibition at 0.1 µM [2]: 29% |
| 4.24 µg/mL | 1.7% | > 100 µM | 32% | CCc1cc(C(=O)N2CS(=O)(=O)c3ccccc32)cc(C#N)c1O | 37 µM | – | inhibition at 0.1 µM [2]: 36% |
| 1.06 µg/mL | 0.1% | 4.3 µM | – | COc1cc(C(=O)N2CS(=O)(=O)c3ccccc32)cc(Cl)c1O | – | 49% | – |
| 1.36 µg/mL | 0.35% | 8.8 µM | 67.8% | N#Cc1cc(C(=O)N2CCc3ccccc32)cc(C2CC2)c1O | 24 µM | – | – |
| 5.95 µg/mL | 0.02% | 5.3 µM | 65.1% | N#Cc1cc(C(=O)N2CCc3ccccc32)cc(I)c1O | 53 µM | – | – |
| – | – | > 100 µM | 30% | N#Cc1cc(C(=O)N2CCc3ccccc32)cc(C(F)(F)F)c1O | – | 40% | – |
| 9.14 µg/mL | 1.1% | 6.8 µM | 81% | O=C(c1cc(Cl)c(O)c(Cl)c1)N1CS(=O)(=O)c2ccccc21 [DOTINURAD] | 27 µM | – | AUC(0-inf) [11]: 6.62 µg·h/mL; AUC(0-t) [12]: 109 µg·h/mL; Drug excretion [13]: 44.3%; Drug excretion [14]: 20%; Activity [15]: 16.5%; bioavailability [16]: 86.8%; AUC(0-inf) [17]: 5.74 µg·h/mL; Cmax [18]: 2.4 µg/mL; Cmax [19]: 1.09 µg/mL; inhibition at 0.1 µM [2]: 78%; IC50 [20]: 0.0372 µM |
| – | – | – | – | O=c1[nH]c(=O)c2[nH]c(=O)[nH]c2[nH]1 [URIC ACID] | – | – | pKa [10]: 5.75 |

| SMILES | Cmax [1] | dose excreted at 4 h [3] | IC50 [4] | inhibition at 10 µM [5] | IC50 [6] | inhibition at 100 µM [7] | other results |
| --- | --- | --- | --- | --- | --- | --- | --- |
| CCc1oc2ccccc2c1C(=O)c1cc(Br)c(O)c(Br)c1 [BENZBROMARONE] | 4.42 µg/mL | 0% | – | 51% | 3.1 µM | – | Activity [8]: 11.5%; AUC(0-t) [9]: 95.2 µg·h/mL; inhibition at 0.1 µM [2]: 37%; pKa [10]: 5.17 |
